Data taken from patent US20160244845A1, “METHOD FOR DETERMINING THE PROGNOSIS OF PANCREATIC CANCER” (AB SCIENCE, priority 2013, published 2016).

Tests used:
[1] = test system: pancreatic cancer patients; settings: cited from earlier work
[2] = test system: pancreatic cancer patients; experiment: Clinical phase III study AB07012 (ancillary pharmacogenomic study): overall survival of pancreatic cancer patients; settings: ACOX1 subgroup, DCt cut-off <=3.05; 95% CI [0.10; 0.51]; p-value 0.001

Folfirinox
survival rates after 2 years compared to gemcitabine alone ([1]; pancreatic cancer patients): no benefit | median overall survival ([1]; pancreatic cancer patients, folfirinox: recent phase III study): 11.1 months

Cc1ccc(NC(=O)c2ccc(CN3CCN(C)CC3)cc2)cc1Nc1nc(-c2cccnc2)cs1 [Masitinib]
hazard ratio (masitinib treatment effect with respect to placebo) [2]: 0.23

C#Cc1cccc(Nc2ncnc3cc(OCCOC)c(OCCOC)cc23)c1 [Erlotinib]
overall survival (OS) compared to gemcitabine treatment alone ([1]; in combination treatment with gemcitabine): therapeutic benefit
